Reference: ChEMBL document CHEMBL5252652, “Benzo[b]naphtho[2,1-d]furans and 2-Phenylnaphthalenes from Streblus usambarensis” (J Nat Prod, 2023)
Values after ≈ are worked out from the molar mass of the structure shown.

What was measured:
MCF7 = assay: Cytotoxicity against human MCF7 cells assessed as reduction in cell viability incubated for 24 hrs by PrestoBlue reagent based fluorescence assay; format: toxicity; conditions: mcf7, 24 h
Bacillus subtilis = assay: Antibacterial activity against Bacillus subtilis assessed as inhibition of bacterial growth incubated for 4 to 20 hrs by resazurin based microplate reader analysis; format: functional; conditions: time 4-20 hrs

SMILES	Activity (MCF7)	MIC (Bacillus subtilis) [µM]
COc1ccc2ccc3c4cc(O)c(OC)c(CC=C(C)C)c4oc3c2c1	Non-Toxic	
COc1c(O)cc2c(oc3c4cc(O)ccc4ccc23)c1CC=C(C)C	Non-Toxic	
CC1(C)C=Cc2c(-c3ccc4ccc(O)cc4c3)ccc(O)c2O1	Non-Toxic	9 (≈ 2.87 µg/mL)
